According to patent US9403801B2 (Calitor Sciences, LLC, priority 2014, dated 2016):

What was measured:
[1] = Compound stability in rat liver microsomes; format: in vitro ADME
Outline: (§1)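 Parent compound depletion (5 μM) was tracked by LC/MS/MS over 60 min at 37° C using NADPH-fortified microsomes at 0.5 mg protein/mL. Dextromethorphan served as positive control and denatured microsomes as negative control.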

[2] = Compound stability in human liver microsomes; format: in vitro ADME; conditions: for half-life at 5 μM: compound 5 μM, NADPH 1.0 mM, 37° C.; for CLint scaled at 5 μM: in vivo CLint extrapolated
Outline: as §1

JAK3 (h) = JAK3 (h) (Homo sapiens (Human), UniProt P52333); experiment: JAK3 kinase assay (33P-ATP filter binding, Millipore); format: biochemical
Description: (§2) Kinase assays can be performed by measurement of incorporation of γ-^33P ATP into immobilized myelin basic protein (MBP). High binding white 384 well plates (Greiner) are coated with MBP (Sigma #M−1891) by incubation of 60 μL/well of 20 μg/mL MBP in Tris-buffered saline (TBS; 50 mM Tris pH 8.0, 138 mM NaCl, 2.7 mM KCl) for 24 h at 4° C. Plates are washed 3× with 100 μL TBS. Kinase reactions are carried out in a total volume of 34 μL in kinase buffer (5 mM Hepes pH 7.6, 15 mM NaCl, 0.01% bovine gamma globulin (Sigma #I-5506), 10 mM MgCl2, 1 mM DTT, 0.02% TritonX-100). Compound dilutions are performed in DMSO and added to assay wells to a final DMSO concentration of 1%. Each data point is measured in duplicate, and at least two duplicate assays are performed for each individual compound determination. Enzyme is added to final concentrations of 10 nM or 20 nM, for example. A mixture of unlabeled ATP and γ-^33P ATP is added to start the reaction (2×10^6 cpm of γ-^33P ATP per well (3000 Ci/mmole) and 10 μM unlabeled ATP, typically. The reactions are carried out for 1 h at room temperature with shaking. Plates are washed 7× with TBS, followed by the addition of 50 μL/well scintillation fluid (Wallac). Plates are read using a Wallac Trilux counter. This is only one format of such assays; various other formats are possible, as known to one skilled in the art.
(§3) The above assay procedure can be used to determine the IC50 for inhibition and/or the inhibition constant, Ki. The IC50 is defined as the concentration of compound required to reduce the enzyme activity by 50% under the condition of the assay. The IC50 value is estimated by preparing a 10 point curve using a 1/2 log dilution series (for example, a typical curve may be prepared using the following compound concentrations: 3 μM, 1 μM, 0.3 μM, 0.1 μM, 0.03 μM, 0.01 μM, 0.003 μM, 0.001 μM, 0.0003 μM and 0 μM).
(§4) The kinase assays described herein were performed at Millipore UK Ltd, Dundee Technology Park, Dundee DD2 1SW, UK.

JAK1 (h) = JAK1 (h) (Homo sapiens (Human), UniProt P23458); experiment: JAK1 kinase assay (33P-ATP filter binding, Millipore); format: biochemical
Outline: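 Radiometric assay of γ-33P-ATP incorporation into plate-immobilised MBP; kinase buffer pH 7.6 with 10 mM MgCl2, 10 μM unlabelled ATP typical, enzyme 10 or 20 nM final, 1% DMSO. Reactions ran 1 h at room temperature before scintillation counting. IC50 from 10-point half-log dilution curve, duplicates.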

TYK2 (h) = TYK2 (h) (Homo sapiens (Human), UniProt P29597); experiment: TYK2 kinase assay (33P-ATP filter binding, Millipore); format: biochemical
Description: as §2, §3, §4

JAK2 (h) = JAK2 (h) (Homo sapiens (Human), UniProt O60674); experiment: JAK2 kinase assay (33P-ATP filter binding, Millipore); format: biochemical
Description: as §2, §3, §4

[3] = Pharmacokinetics after intravenous and oral administration in rats; format: in vivo; conditions: for Clearance (CL) after iv dosing / AUC(0-t) / half-life / Vd: dose 1 mg/kg (Ex. 27: 0.72 mg/kg), iv dosing; for F: oral bioavailability; for AUC(0-t) / half-life / Vd: rat, plasma; for Vd: read-out: Vss
Outline: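 Rats were dosed 1 or 2 mg/kg IV or 5 or 10 mg/kg orally, as water solution, HPMC/Tween 80, DMSO/saline, MC suspension or capsule. Plasma was sampled from 0.083 or 0.25 h up to 24 h and quantified by LC/MS/MS in MRM mode with ESI.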

Aurora-A (h) = Aurora-A (h) (Homo sapiens (Human), UniProt O14965); experiment: Aurora-A kinase assay (33P-ATP filter binding, Millipore); format: biochemical
Description: as §2, with “art. […]” for “art.”

FLT3 (h) = FLT3 (h) (Homo sapiens (Human), UniProt P36888); experiment: FLT3 kinase assay (33P-ATP filter binding, Millipore); format: biochemical
Description: as §2, with “art. […]” for “art.”

[4] = human, liver microsomes, pH 7.4, Human liver microsomes 0.5 mg protein/mL
[5] = human, liver microsomes, pH 7.4, Human liver microsomes
[6] = pH 7.4, Rat liver microsomes 0.5 mg protein/mL, compound 5 μM, NADPH 1.0 mM, 37° C.
[7] = pH 7.4, Rat liver microsomes, in vivo CLint extrapolated
[8] = pH 7.4, Human liver microsomes 0.5 mg protein/mL
[9] = rat, liver microsomes, pH 7.4, Rat liver microsomes 0.5 mg protein/mL, compound 5 μM, NADPH 1.0 mM, 37° C.
[10] = rat, liver microsomes, pH 7.4, Rat liver microsomes, in vivo CLint extrapolated

JAK2 (h), sequence (O60674 whole entry): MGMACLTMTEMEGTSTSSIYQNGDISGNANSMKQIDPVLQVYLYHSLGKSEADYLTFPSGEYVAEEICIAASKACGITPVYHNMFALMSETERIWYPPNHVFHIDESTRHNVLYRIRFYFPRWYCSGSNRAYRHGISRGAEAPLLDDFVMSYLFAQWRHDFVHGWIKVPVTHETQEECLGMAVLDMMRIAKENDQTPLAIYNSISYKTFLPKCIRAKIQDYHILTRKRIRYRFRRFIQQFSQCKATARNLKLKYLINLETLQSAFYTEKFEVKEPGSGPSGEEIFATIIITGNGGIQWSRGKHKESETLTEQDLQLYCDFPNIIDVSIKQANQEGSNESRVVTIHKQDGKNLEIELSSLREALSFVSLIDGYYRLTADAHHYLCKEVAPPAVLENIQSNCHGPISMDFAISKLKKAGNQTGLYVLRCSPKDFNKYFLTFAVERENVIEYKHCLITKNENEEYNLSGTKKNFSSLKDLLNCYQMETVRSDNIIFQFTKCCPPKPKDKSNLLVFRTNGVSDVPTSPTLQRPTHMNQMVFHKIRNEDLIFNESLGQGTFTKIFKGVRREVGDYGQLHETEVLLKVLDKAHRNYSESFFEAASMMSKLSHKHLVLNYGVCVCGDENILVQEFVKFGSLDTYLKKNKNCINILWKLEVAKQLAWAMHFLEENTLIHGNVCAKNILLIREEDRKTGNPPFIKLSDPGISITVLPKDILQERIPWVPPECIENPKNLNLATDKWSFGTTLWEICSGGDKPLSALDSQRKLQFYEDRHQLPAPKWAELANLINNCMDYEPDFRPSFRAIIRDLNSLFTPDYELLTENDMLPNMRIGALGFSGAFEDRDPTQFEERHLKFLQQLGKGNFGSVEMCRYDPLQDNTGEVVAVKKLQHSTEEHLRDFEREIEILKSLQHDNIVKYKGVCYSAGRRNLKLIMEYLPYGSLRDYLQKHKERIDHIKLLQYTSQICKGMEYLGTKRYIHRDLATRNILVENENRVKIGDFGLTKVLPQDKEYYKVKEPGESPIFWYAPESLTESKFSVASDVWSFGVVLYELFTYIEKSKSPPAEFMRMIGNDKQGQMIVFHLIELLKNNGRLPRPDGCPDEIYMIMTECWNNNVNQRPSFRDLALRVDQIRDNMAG
JAK1 (h), sequence (P23458 whole entry): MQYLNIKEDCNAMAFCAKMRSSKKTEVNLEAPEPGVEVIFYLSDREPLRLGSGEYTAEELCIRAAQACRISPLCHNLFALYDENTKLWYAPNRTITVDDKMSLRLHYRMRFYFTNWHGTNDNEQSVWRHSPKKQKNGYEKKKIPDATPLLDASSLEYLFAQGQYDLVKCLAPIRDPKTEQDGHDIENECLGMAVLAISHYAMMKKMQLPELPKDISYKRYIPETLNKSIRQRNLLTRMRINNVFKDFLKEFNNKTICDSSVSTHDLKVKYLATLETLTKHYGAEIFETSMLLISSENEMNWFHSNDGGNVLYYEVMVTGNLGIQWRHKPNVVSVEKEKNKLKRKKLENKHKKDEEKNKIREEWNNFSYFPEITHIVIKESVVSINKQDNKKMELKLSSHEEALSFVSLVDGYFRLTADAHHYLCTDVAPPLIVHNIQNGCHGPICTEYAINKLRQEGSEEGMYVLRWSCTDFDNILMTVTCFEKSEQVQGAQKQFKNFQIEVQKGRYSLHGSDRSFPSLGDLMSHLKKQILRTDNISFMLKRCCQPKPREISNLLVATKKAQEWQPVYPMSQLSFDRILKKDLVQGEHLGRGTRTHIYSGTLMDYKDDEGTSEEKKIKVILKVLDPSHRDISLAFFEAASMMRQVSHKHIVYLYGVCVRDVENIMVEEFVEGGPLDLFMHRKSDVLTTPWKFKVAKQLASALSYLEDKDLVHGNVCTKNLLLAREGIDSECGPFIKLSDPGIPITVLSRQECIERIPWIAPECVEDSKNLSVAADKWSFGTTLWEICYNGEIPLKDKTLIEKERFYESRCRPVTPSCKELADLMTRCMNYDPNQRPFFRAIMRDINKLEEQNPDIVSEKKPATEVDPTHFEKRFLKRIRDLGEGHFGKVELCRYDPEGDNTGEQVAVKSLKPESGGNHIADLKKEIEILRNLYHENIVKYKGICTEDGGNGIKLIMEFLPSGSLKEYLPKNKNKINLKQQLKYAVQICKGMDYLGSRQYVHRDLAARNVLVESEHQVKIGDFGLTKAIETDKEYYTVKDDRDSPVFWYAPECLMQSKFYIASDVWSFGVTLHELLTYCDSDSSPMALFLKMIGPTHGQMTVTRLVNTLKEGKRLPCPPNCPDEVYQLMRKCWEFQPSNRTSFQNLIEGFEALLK
JAK3 (h), sequence (P52333 whole entry): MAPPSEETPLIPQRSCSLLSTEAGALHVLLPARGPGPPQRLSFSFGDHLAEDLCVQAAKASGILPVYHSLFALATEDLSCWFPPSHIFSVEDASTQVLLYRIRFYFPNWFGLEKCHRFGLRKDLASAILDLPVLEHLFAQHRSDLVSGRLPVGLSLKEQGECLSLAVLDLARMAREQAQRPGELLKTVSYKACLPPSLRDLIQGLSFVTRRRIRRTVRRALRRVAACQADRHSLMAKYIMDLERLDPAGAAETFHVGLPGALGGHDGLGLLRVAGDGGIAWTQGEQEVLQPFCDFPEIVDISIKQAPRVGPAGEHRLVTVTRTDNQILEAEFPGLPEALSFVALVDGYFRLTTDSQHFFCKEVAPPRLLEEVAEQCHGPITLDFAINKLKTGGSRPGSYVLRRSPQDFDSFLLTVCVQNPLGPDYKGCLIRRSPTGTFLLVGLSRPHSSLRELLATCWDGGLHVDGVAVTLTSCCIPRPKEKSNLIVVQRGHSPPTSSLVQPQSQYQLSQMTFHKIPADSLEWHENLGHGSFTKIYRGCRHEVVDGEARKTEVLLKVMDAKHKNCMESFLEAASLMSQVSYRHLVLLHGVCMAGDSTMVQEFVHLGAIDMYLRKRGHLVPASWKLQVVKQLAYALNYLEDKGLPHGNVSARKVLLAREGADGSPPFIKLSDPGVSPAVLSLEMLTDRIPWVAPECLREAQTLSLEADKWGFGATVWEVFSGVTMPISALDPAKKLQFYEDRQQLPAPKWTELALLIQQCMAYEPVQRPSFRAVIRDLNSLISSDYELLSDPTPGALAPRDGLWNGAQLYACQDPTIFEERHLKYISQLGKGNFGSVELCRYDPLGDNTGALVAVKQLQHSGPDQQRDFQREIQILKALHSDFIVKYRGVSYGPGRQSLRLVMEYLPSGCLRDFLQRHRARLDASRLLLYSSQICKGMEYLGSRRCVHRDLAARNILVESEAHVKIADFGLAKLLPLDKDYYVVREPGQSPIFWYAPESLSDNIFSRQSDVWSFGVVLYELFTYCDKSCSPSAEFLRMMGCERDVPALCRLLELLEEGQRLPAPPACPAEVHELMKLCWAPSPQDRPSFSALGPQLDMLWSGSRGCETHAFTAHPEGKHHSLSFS
TYK2 (h), sequence (P29597 whole entry): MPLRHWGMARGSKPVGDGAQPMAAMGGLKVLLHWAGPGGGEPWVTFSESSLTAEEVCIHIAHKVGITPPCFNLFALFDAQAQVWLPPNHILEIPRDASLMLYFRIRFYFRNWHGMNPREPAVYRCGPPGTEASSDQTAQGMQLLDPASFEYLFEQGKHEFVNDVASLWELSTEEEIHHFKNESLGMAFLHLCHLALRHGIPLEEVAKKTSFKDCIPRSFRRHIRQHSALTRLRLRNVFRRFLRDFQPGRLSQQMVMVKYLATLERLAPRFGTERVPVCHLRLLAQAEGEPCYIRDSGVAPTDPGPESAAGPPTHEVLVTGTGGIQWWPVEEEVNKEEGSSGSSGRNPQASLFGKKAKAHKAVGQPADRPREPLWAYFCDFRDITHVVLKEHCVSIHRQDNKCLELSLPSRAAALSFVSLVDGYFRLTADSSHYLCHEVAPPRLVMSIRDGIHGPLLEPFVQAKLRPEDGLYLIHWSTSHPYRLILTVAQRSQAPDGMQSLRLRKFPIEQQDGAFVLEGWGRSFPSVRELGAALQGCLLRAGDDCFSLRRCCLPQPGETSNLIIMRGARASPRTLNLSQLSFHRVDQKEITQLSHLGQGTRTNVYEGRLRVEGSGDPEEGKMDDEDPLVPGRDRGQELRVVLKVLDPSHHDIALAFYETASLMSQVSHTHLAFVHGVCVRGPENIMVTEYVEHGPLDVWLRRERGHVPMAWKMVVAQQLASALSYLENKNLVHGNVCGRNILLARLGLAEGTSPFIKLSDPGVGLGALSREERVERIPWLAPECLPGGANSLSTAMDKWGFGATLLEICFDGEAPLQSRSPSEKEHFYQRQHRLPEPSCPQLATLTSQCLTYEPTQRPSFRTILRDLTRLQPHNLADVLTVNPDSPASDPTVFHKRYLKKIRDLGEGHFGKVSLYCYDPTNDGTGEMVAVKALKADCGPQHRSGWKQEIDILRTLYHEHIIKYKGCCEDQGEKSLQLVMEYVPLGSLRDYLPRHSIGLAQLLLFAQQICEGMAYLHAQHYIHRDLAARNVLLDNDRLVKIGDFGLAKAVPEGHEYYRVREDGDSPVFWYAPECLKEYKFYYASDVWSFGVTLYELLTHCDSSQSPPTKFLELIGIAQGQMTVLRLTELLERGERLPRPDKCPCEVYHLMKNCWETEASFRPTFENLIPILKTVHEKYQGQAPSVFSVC
Aurora-A (h), sequence (O14965 whole entry): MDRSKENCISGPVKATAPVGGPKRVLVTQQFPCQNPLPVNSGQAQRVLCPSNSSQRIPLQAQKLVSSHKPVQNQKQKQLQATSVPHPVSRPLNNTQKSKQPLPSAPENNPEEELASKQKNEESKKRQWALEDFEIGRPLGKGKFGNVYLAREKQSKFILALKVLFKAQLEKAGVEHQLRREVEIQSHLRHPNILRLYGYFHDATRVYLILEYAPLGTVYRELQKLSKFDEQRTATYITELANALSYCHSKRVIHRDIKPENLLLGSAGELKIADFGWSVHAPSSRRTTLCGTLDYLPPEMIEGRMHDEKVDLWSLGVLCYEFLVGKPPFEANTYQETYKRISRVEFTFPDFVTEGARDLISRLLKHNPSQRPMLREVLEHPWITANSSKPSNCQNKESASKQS

SMILES | half-life at 5 μM [2, 4] | CLint scaled at 5 μM [2, 5] | IC50 (JAK3 (h)) | IC50 (JAK1 (h)) | IC50 (TYK2 (h)) | IC50 (JAK2 (h)) | half-life at 5 μM [1, 6] | CLint scaled at 5 μM [1, 7] | half-life at 5 μM [2, 8] | CLint scaled at 5 μM ([2]; pH 7.4, Human liver microsomes) | Clearance (CL) after iv dosing [3] | F [3] | AUC(0-t) [3] | half-life [3] | Vd [3] | also measured
Cn1cc(Nc2ncc(Cl)c(NC3CCC4(CC3)CCN(C(=O)CC#N)C4)n2)cn1 (single isomer, unassigned) [Ex. 14A, 3-(8-((5-chloro-2-((1-methyl-1H-pyrazol-4-yl)amino)pyrimidin-4-yl)amino)-2-azaspiro[4.5]decan-2-yl)-3-oxopropanenitrile] | 203 min | 0.513 L/h/kg | 39 nM | 0.8 nM | 1 nM | 5 nM |  |  |  |  |  |  |  |  |  | T1/2 ([1]; Rat liver microsomes 0.5 mg protein/mL, compound 5 μM, NADPH 1.0 mM, 37° C.): 10.60 min; CLint ([1]; Rat liver microsomes, in vivo CLint extrapolated): 14.059 L/h/kg
Cn1cc(Nc2ncc(Cl)c(NC3CC4CN(C(=O)CC#N)CC4C3)n2)cn1 (stereo not drawn) [Ex. 12, 3-(5-((5-chloro-2-((1-methyl-1H-pyrazol-4-yl)amino)pyrimidin-4-yl)amino)hexahydrocyclopenta[c]pyrrol-2(1H)-yl)-3-oxopropanenitrile] |  |  | 359 nM | 1 nM | 7 nM | 18 nM | 12 min | 12.5 L/h/kg | 187 min | 0.558 L/h/kg | 7.26 L/h/kg | 39.2% | 0.143 µg·h/mL | 14.4 min | 1.75 L/kg | 
CC(=O)N1CCC2(CCC(Nc3nc(Nc4cnn(C)c4)ncc3Cl)CC2)CC1 [Ex. 28, 1-(9-((5-chloro-2-((1-methyl-1H-pyrazol-4-yl)amino)pyrimidin-4-yl)amino)-3-azaspiro[5.5]undecan-3-yl)ethanone] | 268 min | 0.389 L/h/kg | 47 nM | 0.9 nM | 4 nM | 4 nM |  |  |  |  | 4.26 L/h/kg | 63.6% | 0.251 µg·h/mL | 39 min | 3.06 L/kg | IC50 (Aurora-A (h)): 22 nM; half-life at 5 μM [1, 9]: 73.6 min; CLint scaled at 5 μM [1, 10]: 2.03 L/h/kg; IC50 (FLT3 (h)): 16 nM
Cn1cc(Nc2ncc(Cl)c(NC3CC4CN(S(C)(=O)=O)CC4C3)n2)cn1 (stereo not drawn) [Ex. 31, 5-chloro-N^2-(1-methyl-1H-pyrazol-4-yl)-N^4-(2-(methylsulfonyl)octahydrocyclopenta[c]pyrrol-5-yl)pyrimidine-2,4-diamine] |  |  | 178 nM | 1 nM | 18 nM | 12 nM | 13.2 min | 11.3 L/h/kg | 67.2 min | 1.55 L/h/kg | 3.67 L/h/kg | 25.7% | 0.272 µg·h/mL | 39.6 min | 2.06 L/kg | IC50 (Aurora-A (h)): 4 nM; IC50 (FLT3 (h)): 134 nM
CC(=O)N1CC2CC(Nc3nc(Nc4cnn(C)c4)ncc3Cl)CC2C1 (stereo not drawn) [Ex. 32, 1-(5-((5-chloro-2-((1-methyl-1H-pyrazol-4-yl)amino)pyrimidin-4-yl)amino)hexahydrocyclopenta[c]pyrrol-2(1H)-yl)ethanone] |  |  |  | 3 nM |  | 37 nM | 27.2 min | 5.48 L/h/kg | 202 min | 0.516 L/h/kg | 3.77 L/h/kg | 41.3% | 0.264 µg·h/mL | 35.4 min | 1.65 L/kg | 
Cc1cc(Nc2ncc(Cl)c(NC3CCC4(CC3)CCN(C(=O)CC#N)CC4)n2)nn1C [Ex. 37, 3-(9-((5-chloro-2-((1,5-dimethyl-1H-pyrazol-3-yl)amino)pyrimidin-4-yl)amino)-3-azaspiro[5.5]undecan-3-yl)-3-oxopropanenitrile] | 56.2 min | 1.86 L/h/kg |  | 5 nM |  | 11 nM |  |  |  |  | 2.66 L/h/kg | 31.3% | 0.381 µg·h/mL | 71.4 min | 2.97 L/kg | half-life at 5 μM [1, 9]: 68.9 min; CLint scaled at 5 μM [1, 10]: 2.16 L/h/kg
Cc1cc(Nc2ncc(Cl)c(NC3CC4CN(C(=O)CC#N)CC4C3)n2)nn1C (stereo not drawn) [Ex. 39, 3-(5-((5-chloro-2-((1,5-dimethyl-1H-pyrazol-3-yl)amino)pyrimidin-4-yl)amino)hexahydrocyclopenta[c]pyrrol-2(1H)-yl)-3-oxopropanenitrile] |  |  |  | 5 nM |  | 30 nM | 36.9 min | 4.04 L/h/kg | 127 min | 0.822 L/h/kg | 2.39 L/h/kg | 83.1% | 0.422 µg·h/mL | 41.4 min | 1.19 L/kg | 
